Entries after “also recorded” stand apart in the source; their conditions may differ.
Experiments:
[1] = test system: fungal infected fingernail (onychomycosis); test: Topical treatment of a fungal infected fingernail in a patient; format: in vivo, human
From the text: The copper sulfate solution was applied to their fingernails for approximately thirty minutes and then allowed to air dry. Excess copper sulfate powder was removed by washing two-three times with water. […] Monthly, the copper sulfate solution was applied as given above to the infected fingernail and to all fingernails on the same hand.
The bandage was applied to the infected nail and secured in place. Care was given to ensure that the solution soaked into the crevice along the edge of the nail bed and cuticle. […] The bandage was worn for two days and then replaced with a clean dry bandage to protect the nail from snagging. The treatment was repeated on Day 31 and again on Day 45; no further treatments were given.

[2] = test system: fungal infected toe nail; test: Topical treatment of a fungal infected toe nail in a patient; format: in vivo, human; settings: aqueous 10% (w/v) solution applied approximately thirty minutes, air dried, washed with water, Example 2 repeated monthly
From the text: As the treated nail grew, healthy nail tissue appeared at the base of the nail bed while the infected portion of the nail was pushed off the nail bed and periodically trimmed away. […] A patient diagnosed as having a fungal infected toe nail began treatment by applying with a cotton swab an aqueous 10% (w/v) copper(II)sulfate pentahydrate solution to the infected nail as well as to all nails on the same foot. […] As the treated nail grew, healthy nail tissue appeared at the base of the nail bed while the infected portion of the nail was pushed off the nail bed and periodically trimmed away. […] The infected portion of the patient's nail continued to have a bluish color.

**Q.** With `O.O.O.O.O.O=S(=O)([O-])[O-].[Cu+2]` [copper(II)sulfate pentahydrate] as the molecule, how does the “Outcome of fingernail treatment (spread of fungal infection, nail condition)” value ([1]; patient, aqueous 10% (w/v) solution applied approximately thirty minutes, washed, repeated monthly) read?
**A.** The value was “resulting in a normal healthy nail”.

**Q.** What about the “Outcome of toe nail treatment (spread of fungal infection, nail condition)” value [2] of the same molecule?
**A.** Its value is “the fungal infection did not spread to healthy nail tissue; also recorded: resulting in a normal healthy nail”.

**Q.** Which “Nail examination after treatment” value ([1]; person, right index fingernail, 10% aqueous solution with trace of detergent on bandage worn two days, Day 1, 31, 45, examined Day 132) does the source give for `O=S(=O)([O-])[O-].[Cu+2]` [copper sulfate] here?
**A.** The value was “New pink nail growth was present from the cuticle to a point midway along the nail”.

Source: patent publication US20040001791A1, “Composition, method of use, and devices for the treatment of onychomycosis” (priority 2000, published 2004)
